Data as given in patent US20180071280A1, “MODULATORS OF CELL DEATH PROCESSES” (URIFER LTD., priority 2015, published 2018).
Entries after “also recorded” stand apart in the source; their conditions may differ. Where a name gives a salt, the structure may show the parent alone.

Assays:
Fer = Fer (Homo sapiens, UniProt P16591); test: Fer autophosphorylation in RKO CC cells (IP/WB); assay type: cell-based; design: endogenous in cells; settings: 24 h
Procedure: (§1) WB analyses were carried out as previously described before. In brief, cells were lysed in RIPA buffer mixed with protease inhibitors and separated on SDS-PAGE gel, transferred to PVDF membrane treated with 5% skim milk to exclude non-specific background and incubated with a primary antibody over-night. The membrane was incubated for 1 h with a secondary antibody conjugated to Horseradish Peroxidase (HRP). The protein-antibody complex was visualized using the SuperSignal West Pico Chemiluminescent Substrate (Thermo scientific, USA).
Protein lysates (1 mg) were prepared from tissues of adult mice according to previously described protocol, including incubation with Protein A Sepharose (GE Healthcare) to avoid nonspecific binding. Protein lysates were incubated with specific antibodies diluted 1:100 overnight at 4° C. Antigen-antibody complexes were precipitated with Protein A Sepharose, washed twice in PBS and eluted in Sample Buffer (2% SDS, 1% DTT 0.02% bromophenol blue 10% glycerol, 12.5 mM EDTA, 50 mM Tris-HCl pH 6.8) at room temperature for 10 min and at 100° C. for 8 min. Eluates were separated on SDS-PAGE and visualized by WB using specific antibodies.

[1] = tested on: pancreatic cancer cells (PANC-1); test: MultiTox-Fluor cytotoxicity assay in PANC-1 cells; assay type: cell-based, human; settings: PANC-1, 24-72 h
Procedure: (§2) Cell lines (HCT116, ht29, Rko, Hep3B, SW48, SW620, MDA-MB-231, PANC-1, su.86.86, Hfb) were obtained from the American Type Culture Collection (ATCC). Cell type authentication was carried out by microscope and DNA profiles using short tandem repeat analysis. Cells were grown in Minimum Essential Medium (MEM) containing 10% heat-inactivated Fetal Bovine Serum (FBS) or in Dulbecco's Modified Eagle's Medium (DMEM) containing 10% FBS, where specified, at 37° C. with 5% CO2. In general, the in-vitro experiments were carried out with 2. μM 0260 added into the growth medium. Dose response experiments included increasing 0260 concentrations. Cell death levels were determined using the MultiTox-Fluor Multiplex Cytotoxicity Assay (G9201, Promega, USA). In brief, 10,000 cells were seeded in black bottom 96 wells plate and were allowed to attach to the plate bottom for 16 h before the administration of various 0260 concentration in each well. Cell death levels were determined according to the manufacturer's protocol.
(§3) Cells death level was determined using the MultiTox-Fluor Multiplex Cytotoxicity Assay (G9201, Promega, USA) according to the manufacturer's protocol.

Fer-PARP-1 complex = biological target: T1, Fer-PARP-1 complex (Homo sapiens, UniProt P16591); test: Co-immunoprecipitation of Fer and PARP-1 from SW620 nuclear lysates; assay type: cell-based
T1 construct: endogenous in cells; host or cells: SW620 cells, nuclear lysates

[2] = tested on: triple negative breast carcinoma MDA-MB-231 (MDA); test: MultiTox-Fluor cytotoxicity assay in MDA-MB-231 cells; assay type: cell-based, human; settings: 24-72 h
Procedure: as §2, §3

[3] = tested on: su.86.86 (pancreatic cancer cells derived from metastatic site-liver); test: Cytotoxicity dose response in su.86.86 cells; assay type: cell-based, human; settings: 24 h, 48 h, 72 h
Procedure: as §2, §3

PARP-1 = PARP-1 poly-ADP-ribosylation activity in CC cells (WB); assay type: cell-based, human; settings: CC cells
Procedure: as §1

T1 sequence (P16591 whole entry, one chain of several): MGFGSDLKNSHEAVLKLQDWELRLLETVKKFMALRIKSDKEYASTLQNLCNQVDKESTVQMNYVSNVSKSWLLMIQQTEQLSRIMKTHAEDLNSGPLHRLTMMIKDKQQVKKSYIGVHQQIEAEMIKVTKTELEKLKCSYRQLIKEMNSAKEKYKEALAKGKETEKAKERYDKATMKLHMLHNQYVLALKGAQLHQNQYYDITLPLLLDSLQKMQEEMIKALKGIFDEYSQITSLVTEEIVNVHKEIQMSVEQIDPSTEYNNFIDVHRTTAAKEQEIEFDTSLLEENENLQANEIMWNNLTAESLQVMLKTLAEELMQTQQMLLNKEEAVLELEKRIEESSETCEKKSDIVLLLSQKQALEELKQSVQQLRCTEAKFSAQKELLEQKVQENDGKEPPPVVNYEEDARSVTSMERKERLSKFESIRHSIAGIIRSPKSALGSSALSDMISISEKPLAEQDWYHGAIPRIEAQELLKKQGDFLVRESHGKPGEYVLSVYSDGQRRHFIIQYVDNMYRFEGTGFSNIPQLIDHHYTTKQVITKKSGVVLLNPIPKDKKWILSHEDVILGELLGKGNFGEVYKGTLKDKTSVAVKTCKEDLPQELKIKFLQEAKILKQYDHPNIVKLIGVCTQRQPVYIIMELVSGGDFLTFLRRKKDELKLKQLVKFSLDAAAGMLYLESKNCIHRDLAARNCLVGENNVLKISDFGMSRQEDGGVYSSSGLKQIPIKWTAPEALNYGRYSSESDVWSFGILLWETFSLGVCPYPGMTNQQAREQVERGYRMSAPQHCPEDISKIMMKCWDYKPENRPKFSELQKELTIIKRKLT
Sequence of Fer (P16591 whole entry): as the sequence (P16591 whole entry, one chain of several) above

CC(C)c1ccc(-c2cn3nc(N4CCC(CN5CCN(C)CC5)CC4)sc3n2)cc1 [compound 0260, tartarate salt of 6-(4-isopropyl-phenyl)-2-{4-[(4-methyl-piperazin-1-yl)methyl]piperidin-1-yl}-imidazo [2,1-b][1,3,4]thiadiazole]
Fer autophosphorylation level in cells (Fer): inhibitory effect | concentration efficient in inducing cell death [1]: ≤ 1.5 µM | association of Fer with PARP-1 (Fer-PARP-1 complex): dissociated Fer from PARP-1 | concentration efficient in inducing cell death [2]: ≤ 1.5 µM | sensitivity of Su.86.86 relative to PANC-1 cells [3]: more sensitive | poly-ADPr / PARP-1 poly-ADP-ribosylation activity (PARP-1): induction of poly-ADPr; also recorded: significant increase
